Experimental data: patent publication EP4775575A1, “COMPOUND USED AS CDK4 KINASE INHIBITOR AND USE THEREOF” (TYK Medicines, Inc., priority 2023, dated 2025)

Experiments:
[1] = test system: human ovarian cancer cells A2780; assay: Cell anti-proliferation assay (MTT), A2780; assay type: cell-based; details: Homo sapiens, 120 h, incubated for 5 days
Description: (§1) Human breast cancer cells MCF-7, human ovarian cancer cells A2780, human mantle cell lymphoma cells JEKO-1. DMEM medium (Bio-Channel), DMSO (dimethyl sulfoxide), MTT (thiazolyl blue), 0.25% EDTA-Trypsin (trypsin digestive solution), 1×PBS (phosphate buffered saline, pH 7.2), 96-well plate (Corning), fetal bovine serum (FBS), 10,000 U/mL penicillin-G/streptomycin, high-speed refrigerated centrifuge (EPPENDORF 5810R), and microplate reader (Tecan Spark).
(§2) • A) Tumor cells were cultured in DMEM (high glucose, containing 10% FBS and 100 U/mL penicillin-G/streptomycin) at 37 °C, 5% CO2 and saturated humidity until 80-90% confluence. • B) The medium in the 10 cm culture dish was removed. • C) Cells were rinsed once with 10 mL of 1×PBS. • D) 4 mL of 0.25% EDTA-Trypsin was added, and the cells were digested in a 37 °C, 5% CO2 incubator for 5 minutes. The mixture was transferred to a 15 mL centrifuge tube, centrifuged at 200 g for 5 minutes, and the supernatant was discarded to obtain cell pellet. • E) The cells were resuspended in 4 mL of DMEM medium, counted, and adjusted to 50,000 cells/mL. • F) 100 µL of cell suspension was added to each well of a 96-well plate, and the plate was incubated overnight at 37 °C in a 5% CO2 incubator.
(§3) • A) Gradient dilution solutions of the test compounds were prepared: the test compound was prepared into a 1 mM stock solution. Then 1.5 µL of the stock solution was dissolved in 1.5 mL of DMSO-free medium, followed by 3-fold serial gradient dilution with medium containing 0.1% DMSO to give 9 concentrations.
(§4) • A) The cell culture plate was taken out, and 10 µL of 5 mg/mL MTT was added in a biological safety cabinet; • B) The plate was returned to the incubator and incubated for another 3 hours; • C) The cell culture plate was taken out and the medium was removed, 100 µL of isopropanol (containing 0.4 mM HCl, 0.1% NP-40) was added, and the plate was shaken at room temperature for 30 minutes; • D) The absorbance at 570 nm was measured using a TECAN microplate reader.

[2] = target: CDK4/CycD1 (Homo sapiens, UniProt P11802); assay: Kinase activity assay (MSA, EZ Reader) against CDK4
[3] = target: T1, CDK6/CyclinD3 (Homo sapiens, UniProt Q00534); assay: Kinase activity assay (MSA, EZ Reader) against CDK6; assay type: biochemical; details: CDK6/CyclinD3 5.00 nM, ATP 350 µM, FL-Peptide34, 10mM MgCl2
T1 construct: purchased Carna 04-107

[4] = test system: Human breast cancer cells MCF-7; assay: Cell anti-proliferation assay (MTT), MCF-7; assay type: cell-based; details: Homo sapiens, MCF7, 120 h, MCF-7 cells, incubated for 5 days
Description: as §1, §2, §3, §4

[5] = test system: human mantle cell lymphoma cells JEKO-1; assay: Cell anti-proliferation assay (MTT), JEKO-1; assay type: cell-based; details: Homo sapiens, 120 h, JEKO-1 cells, incubated for 5 days
Description: as §1, §2, §3, §4

CDK4/CycD1, sequence (P11802 whole entry): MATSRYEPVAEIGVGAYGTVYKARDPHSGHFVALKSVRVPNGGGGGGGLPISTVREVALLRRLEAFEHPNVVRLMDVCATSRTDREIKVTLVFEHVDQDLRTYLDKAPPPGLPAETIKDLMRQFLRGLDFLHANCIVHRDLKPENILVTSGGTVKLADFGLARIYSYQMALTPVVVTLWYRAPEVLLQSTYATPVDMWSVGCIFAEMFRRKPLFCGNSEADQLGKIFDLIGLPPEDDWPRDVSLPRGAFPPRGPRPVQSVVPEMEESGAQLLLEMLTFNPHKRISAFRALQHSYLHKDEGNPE
T1 sequence (Q00534 whole entry): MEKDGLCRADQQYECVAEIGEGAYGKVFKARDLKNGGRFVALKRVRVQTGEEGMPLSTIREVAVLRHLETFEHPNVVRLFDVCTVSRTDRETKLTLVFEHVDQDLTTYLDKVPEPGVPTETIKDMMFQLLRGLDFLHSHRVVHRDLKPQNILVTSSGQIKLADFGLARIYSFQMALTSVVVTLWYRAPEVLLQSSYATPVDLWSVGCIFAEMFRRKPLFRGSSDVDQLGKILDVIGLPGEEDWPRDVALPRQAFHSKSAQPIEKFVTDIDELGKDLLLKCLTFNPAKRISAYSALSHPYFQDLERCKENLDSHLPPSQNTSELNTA
T1 sequence (P30281 whole entry partner): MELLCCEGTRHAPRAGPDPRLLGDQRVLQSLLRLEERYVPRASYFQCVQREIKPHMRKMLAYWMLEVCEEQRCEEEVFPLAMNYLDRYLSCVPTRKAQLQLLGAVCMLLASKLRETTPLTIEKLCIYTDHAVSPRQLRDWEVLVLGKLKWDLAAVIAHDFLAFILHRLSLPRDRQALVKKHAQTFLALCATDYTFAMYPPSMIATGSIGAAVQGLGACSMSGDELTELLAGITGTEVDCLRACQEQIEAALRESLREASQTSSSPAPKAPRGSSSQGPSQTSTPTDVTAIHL

| SMILES | IC50 [1] [nM] | IC50 [2] [nM] | IC50 [3] [nM] | IC50 [4] [nM] | IC50 [5] [nM] |
| --- | --- | --- | --- | --- | --- |
| CC(C)n1c(N2CCCC2)nc2c(F)cc(-c3nc(N[C@@H]4CCOC[C@H]4O)ncc3Cl)cc21 [TB-11, (3S,4R)-4-((5-chloro-4-(4-fluoro-1-isopropyl-2-(pyrrolidin-1-yl)-1H-benzo[d]imidazol-6-yl)pyrimidin-2-yl)amino)tetrahydro-2H-pyran-3-ol] | ≤ 500 | 6.45 | 202 | ≤ 500 | ≤ 500 |
| CC1(C)CSc2nc3c(F)cc(-c4nc(N[C@@H]5CCOC[C@H]5O)ncc4Cl)cc3n2C1 [TB-146] | ≤ 500 | 11.9 | 60.1 | ≤ 500 | ≤ 500 |
| CC(C)n1c(N(C)C)nc2c(F)cc(-c3nc(N[C@@H]4CCOC[C@H]4O)ncc3Cl)cc21 [TB-1] | ≤ 500 | 3.7 | 67.8 | ≤ 500 | ≤ 500 |
| CC(C)n1c(N2CCOC2=O)nc2c(F)cc(-c3nc(NC4CCN(S(C)(=O)=O)CC4)ncc3Cl)cc21 [TB-26] | ≤ 500 | 18.6 | 200 | ≤ 500 | ≤ 500 |
| CC(C)n1c(N2CCOC2=O)nc2c(F)cc(-c3nc(NC4CCN(S(=O)(=O)C5CC5)CC4)ncc3Cl)cc21 [TB-33] | ≤ 500 | 8.37 | 61.7 | ≤ 500 | ≤ 500 |
| CC(C)n1c(N(C)C)nc2c(F)cc(-c3nc(N[C@@H]4CCN(S(C)(=O)=O)C[C@H]4O)ncc3Cl)cc21 [TB-13, (3R,4R)-4-((5-chloro-4-(2-(dimethylamino)-4-fluoro-1-isopropyl-1H-benzo[d]imidazol-6-yl)pyrimidin-2-yl)amino)-1-(methylsulfonyl)piperidin-3-ol] | ≤ 500 | 1.27 | 18.6 | ≤ 500 | ≤ 500 |
| CC(C)n1c(N2CCOC2=O)nc2c(F)cc(-c3nc(NC4CCN(S(C)(=O)=O)CC4(F)F)ncc3Cl)cc21 (stereo not drawn) [TB-35] | ≤ 500 | 15.5 | 167 | ≤ 500 | ≤ 500 |
| CC(C)n1c(N2CCCOC2=O)nc2c(F)cc(-c3nc(N[C@@H]4CCOC[C@H]4O)ncc3Cl)cc21 [TB-25] | ≤ 500 | 43.4 | > 500 | 500 to 2000 | ≤ 500 |
| CC(C)n1c(N2CCOC2=O)nc2c(F)cc(-c3nc(NC4CCN(S(C)(=O)=O)CC4)ncc3F)cc21 [TB-28] | ≤ 500 | 8.57 | 154 | ≤ 500 | ≤ 500 |
| CC(C)n1c(N(C)C)nc2c(F)cc(-c3nc(NC4CCOCC4)ncc3Cl)cc21 [TB-2, 6-(5-chloro-2-((tetrahydro-2H-pyran-4-yl)amino)pyrimidin-4-yl)-4-fluoro-1-isopropyl-N,N-dimethyl-1H-benzo[d]imidazol-2-amine] | ≤ 500 | 18 | 319 | ≤ 500 | ≤ 500 |
| CC(C)n1c(N2CCOC2=O)nc2c(F)cc(-c3nc(NC4CCN(S(=O)(=O)C(C)C)CC4)ncc3Cl)cc21 [TB-32] | ≤ 500 | 12.3 | 145 | ≤ 500 | ≤ 500 |
| C[C@H]1CCN(CC(C)(C)O)c2nc3c(F)cc(-c4nc(N[C@@H]5CCOC[C@H]5O)ncc4Cl)cc3n21 [TC-7] | ≤ 500 | 3.7 | 154 | ≤ 500 | ≤ 500 |
| COC(=O)N(C)c1nc2c(F)cc(-c3nc(N[C@@H]4CCOC[C@H]4O)ncc3Cl)cc2n1C(C)C [TB-8, methyl (6-(5-chloro-2-(((3S,4R)-3-hydroxytetrahydro-2H-pyran-4-yl)amino)pyrimidin-4-yl)-4-fluoro-1-isopropyl-1H-benzo[d]imidazol-2-yl)(methyl)carbamate] | ≤ 500 | 18.8 | 334 | 500 to 2000 | ≤ 500 |
| CN1CCCn2c1nc1c(F)cc(-c3nc(Nc4ccc(C#N)cc4)ncc3Cl)cc12 [TB-133, 4-((5-chloro-4-(9-fluoro-1-methyl-1,2,3,4-tetrahydrobenzo[4,5]imidazo[1,2-a]pyrimidin-7-yl)pyrimidin-2-yl)amino)benzonitrile] | ≤ 500 | 17.9 | 64.8 | ≤ 500 | ≤ 500 |
| CC(C)n1c(N(C)C)nc2c(F)cc(-c3nc(NC4CCN(S(C)(=O)=O)CC4)ncc3Cl)cc21 [TB-3, 6-(5-chloro-2-((1-(methylsulfonyl)piperidin-4-yl)amino)pyrimidin-4-yl)-4-fluoro-1-isopropyl-N,N-dimethyl-1H-benzo[d]imidazol-2-amine] | ≤ 500 | 6.97 | 74.9 | ≤ 500 | ≤ 500 |
| CC1CCN(C)c2nc3c(F)cc(-c4nc(NC5CCN(S(C)(=O)=O)CC5)ncc4Cl)cc3n21 (stereo not drawn) [TB-51, 5-chloro-4-(9-fluoro-1,4-dimethyl-1,2,3,4-tetrahydrobenzo[4,5]imidazo[1,2-a]pyrimidin-7-yl)-N-(1-(methylsulfonyl)piperidin-4-yl)pyrimidin-2-amine] | ≤ 500 | 2.23 | 27.6 | ≤ 500 | ≤ 500 |
| CC(C)n1c(N2CCOC2=O)nc2c(F)cc(-c3nc(Nc4ccc(S(=O)(=O)NCCN(C)C)cc4)ncc3Cl)cc21 [TB-38, 4-((5-chloro-4-(4-fluoro-1-isopropyl-2-(2-oxooxazolidin-3-yl)-1H-benzo[d]imidazol-6-yl)pyrimidin-2-yl)amino)-N-(2-(dimethylamino)ethyl)benzenesulfonamide] | ≤ 500 | 18.5 | 76.6 | ≤ 500 | ≤ 500 |
| CC(C)n1c(N2CC[C@@H](O)C2)nc2c(F)cc(-c3nc(N[C@@H]4CCOC[C@H]4O)ncc3Cl)cc21 [TB-7, (R)-1-(6-(5-chloro-2-(((3S,4R)-3-hydroxytetrahydro-2H-pyran-4-yl)amino)pyrimidin-4-yl)-4-fluoro-1-isopropyl-1H-benzo[d]imidazol-2-yl)pyrrolidin-3-ol] | ≤ 500 | 2.94 | 113 | ≤ 500 | ≤ 500 |
| CC(C)n1c(N(C)C)nc2c(F)cc(-c3nc(N[C@H]4CC[C@H](NS(C)(=O)=O)CC4)ncc3Cl)cc21 [TB-5] | ≤ 500 | 4.24 | 71.6 | ≤ 500 | ≤ 500 |
| CC(C)n1c(N(C)C)nc2c(F)cc(-c3nc(Nc4ccc(N5CCNCC5)cn4)ncc3Cl)cc21 [TB-18, 6-(5-chloro-2-((5-(piperazin-1-yl)pyridin-2-yl)amino)pyrimidin-4-yl)-4-fluoro-1-isopropyl-N,N-dimethyl-1H-benzo[d]imidazol-2-amine] | ≤ 500 | 2.6 | 13.7 | ≤ 500 | ≤ 500 |
| C[C@@H]1C[C@H](C)n2c(nc3c(F)cc(-c4nc(N[C@@H]5CCOC[C@H]5O)ncc4Cl)cc32)N1C [TB-154] | ≤ 500 | 3 | 75.8 | ≤ 500 | ≤ 500 |
| CNS(=O)(=O)c1ccc(Nc2ncc(Cl)c(-c3cc(F)c4nc5n(c4c3)C(C)CCN5C)n2)cc1 (stereo not drawn) [TB-53, 4-((5-chloro-4-(9-fluoro-1,4-dimethyl-1,2,3,4-tetrahydrobenzo[4,5]imidazo[1,2-a]pyrimidin-7-yl)pyrimidin-2-yl)amino)-N-methylbenzenesulfonamide] | ≤ 500 | 10.6 | 56.9 | ≤ 500 | ≤ 500 |
| COc1cc(N2CCNCC2)ccc1Nc1ncc(Cl)c(-c2cc(F)c3nc(N(C)C)n(C(C)C)c3c2)n1 [TB-17, 6-(5-chloro-2-((2-methoxy-4-(piperazin-1-yl)phenyl)amino)pyrimidin-4-yl)-4-fluoro-1-isopropyl-N,N-dimethyl-1H-benzo[d]imidazol-2-amine] | 500 to 2000 | 33.8 | 297 | 500 to 2000 | 500 to 2000 |
| C[C@H]1CCN(c2ccc(C#N)cc2)c2nc3c(F)cc(-c4nc(N[C@@H]5CCOC[C@H]5O)ncc4Cl)cc3n21 [TC-17] | ≤ 500 | 4.5 | > 500 | ≤ 500 | ≤ 500 |
